From PMC10218007, “Potential Clinically Relevant Effects of Sialylation on Human Serum AAG-Drug Interactions Assessed by Isothermal Titration Calorimetry: Insight into Pharmacoglycomics?” (International Journal of Molecular Sciences, 2023)
Where a name gives a salt, the structure may show the parent alone.

Experiments:
[1] = ref 46 lidocaine, 47 diltiazem, 48 clindamycin, 49 warfarin, cited from earlier work; for Cmax: usual therapeutic peak plasma level
[2] = biological target: Desialylated human AAG (AAG − s) (Homo sapiens, UniProt P02763); experiment: ITC titration of desialylated AAG (AAG − s) with drugs; format: binding; conditions: 310 K
Method: (§1) All chemicals were used without further purification. Immobilized SialEXO® (derived from Akkermansia muciniphilla and expressed in E. Coli) was obtained from Smart Enzymes™ Genovis (Lund, Sweden), and HEPES buffer was obtained from VWR International (Leuven, Belgium). All other reagents were of analytical grade or better. All solutions were prepared immediately before the experiments in order to minimize contamination and/or impair the stability of solutions. The solutions for microcalorimetric titrations were prepared in 25 mM HEPES at pH 7.40 containing 150 mM NaCl (Kemika, Zagreb, Croatia), using doubly distilled water and 5 M NaOH (Kemika, Zagreb, Croatia) for adjusting the pH value. AAG and drug solutions were prepared by dissolving the appropriate amount of solid in the given solvent.
The ITC titrations were performed on a MicroCal PEAQ–ITC calorimeter (Malvern Panalytical Ltd., Malvern, UK). The solutions were thoroughly degassed beforehand, under vacuum to avoid any formation of bubbles that might be present in the sample cell. All microcalorimetric measurements were performed at 37 °C. […]
(§2) All ITC data were analyzed with MicroCal PEAQ-ITC Analysis Software 1.30 using the One Set Sites Fitting Model. […] All p values were calculated using the t-test() function in Microsoft Excel (Microsoft Corporation, Redmond, WA, USA).

[3] = biological target: Native human AAG (AAG + s) (Homo sapiens, UniProt P02763); experiment: ITC titration of native AAG (AAG + s) with drugs; format: binding; conditions: 310 K
Method: as §1
The ITC titrations were performed on a MicroCal PEAQ–ITC calorimeter (Malvern Panalytical Ltd., Malvern, UK). The solutions were thoroughly degassed beforehand, under vacuum to avoid any formation of bubbles that might be present in the sample cell. All microcalorimetric measurements were performed at 37 °C. The volume of the sample cell was approximately 200 μ L and the volume of the burette (syringe) was 42 μ L. Each titration was performed in duplicate or triplicate. Blank experiments were performed to estimate corrections for the dilution heat.
AAG solution (100 – 200 μ M) was loaded into the sample cell using a calibrated syringe (1 mL Hamilton) and titrated with 1 – 2 mM drug solutions. The sample cell was continuously stirred at 700 rpm. Differential power (DP) is arbitrarily applied to each titration. The interval between successive injections was 200 s, which is long enough for the signal to return to its baseline and to ensure equilibrium after each addition. Double distilled water was present in the reference cell during all experiments. To correct for the thermal effect, control titrations were performed for drug solution in buffer under the same conditions as the AAG–drug titrations and dilution heat was subtracted from the AAG–drug titration data.
as §2

AAG + s or AAG − s = conditions: calculated; for Decrease of free drug concentration, AAG − s vs AAG + s, in the presence of HSA: with 0.64 mM HSA, depending on the conditions
Source text: AAG is an acute-phase protein with variable concentration in plasma and this consequently affects the free drug concentration. Hyperquad simulation and speciation software (HySS 4.0.31) was used to calculate the fraction of free vs. bound drug by solving the mass balance equations using the measured binding affinities. […] The plasma concentrations of the drug vary over time depending on the dosing regimen, and steady–state concentrations were used in the model.
In addition to AAG, human serum albumin (HSA) also plays a critical role in drug binding due to its high plasma concentration. Therefore, to obtain more realistic estimates, the free drug concentration was calculated taking into account the available data on the binding of the studied drugs to HSA.

[4] = cited from earlier work; for pKa: ref (5) lidocaine and diltiazem, (6) clindamycin, (7) warfarin
AAG+s = conditions: log Ka = log (1/KD), KD in M; ref (2) lidocaine, (3) warfarin, (4) clindamycin; cited from earlier work

Native human AAG (AAG + s), sequence (P02763 19-201): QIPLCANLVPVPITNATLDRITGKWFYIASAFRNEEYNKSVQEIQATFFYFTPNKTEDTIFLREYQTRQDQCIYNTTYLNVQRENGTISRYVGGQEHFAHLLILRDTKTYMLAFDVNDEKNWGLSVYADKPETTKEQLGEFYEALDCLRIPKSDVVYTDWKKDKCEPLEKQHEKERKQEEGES
Desialylated human AAG (AAG − s), sequence (P02763 19-201): as above

Row | Molecule | Cmax [1] | N (number of drug binding sites), AAG − s [2] | N (number of drug binding sites), AAG + s [3] | Δr S°, AAG + s [3] | Decrease of free plasma concentration with AAG − s vs AAG + s (AAG + s or AAG − s; AAG only, no HSA) | pKa [4] | Reference AAG+s log KA (AAG+s) | Decrease of free drug concentration, AAG − s vs AAG + s, in the presence of HSA (AAG + s or AAG − s) | Ctrough ([1]; usual therapeutic trough plasma level) | Fraction present in protonated form ([4]; at the measured pH (7.40))
1 | COc1ccc([C@@H]2Sc3ccccc3N(CCN(C)C)C(=O)[C@@H]2OC(C)=O)cc1 [Diltiazem, diltiazem hydrochloride] | 0.44 µM | 0.868 ± 0.0290 | 0.804 ± 0.238 | 7.80 ± 1.74 J K^−1 mol^−1 | 20–30% | 8.03 |  |  |  | 
2 | CC(=O)CC(c1ccccc1)c1c(O)c2ccccc2oc1=O (stereo not shown) [Warfarin, Warfarin sodium salt] | 9.08 µM | 0.795 ± 0.0290 | 0.654 ± 0.117 | −191± 5.42 J K^−1 mol^−1 |  | 4.99 | 5.34 | 10% to 40 |  | 
3 | CCN(CC)CC(=O)Nc1c(C)cccc1C [Lidocaine, lidocaine] |  |  |  |  |  |  |  | 10% to 40 | 6.40 µM | 
4 | clindamycin phosphate |  |  |  |  |  |  |  |  |  | about 30%
